Test [1] concerns HPAC (human pancreatic adenocarcinoma cells). Description: Proliferation of HPAC cells, Trypan Blue exclusion. It counts as cell-based. To be noted: 48 hours. The method, then:
The malignant human cell line HPAC (human pancreatic adenocarcinoma cells) was used in this study. The cells were seeded at a concentration of 2×10^5/ml in 24 well culture plate (Costar, Cambridge, Mass). […] Varying amounts of the stock solutions were then used to treat the HPAC cells. The final concentration of the farnesol analogs in the culture plate wells ranged from 0 nM (ethanol-treated control) to 500 nM. The plate was then incubated at 37° C. under a 5% CO2-humidified atmosphere for 48 hours. The total viable cells from each well were determined by Trypan Blue (0.4%) exclusion (Gibco, N.Y.) followed by cell counting.

Test [2] relates to NIH 3T3 fibroblasts transfected with H-Ras(61 L)CVLL [H-Ras-GG]. The experiment in a line: Soft agar anchorage-independent growth, H-Ras-GG cells. It counts as cell-based. The note with it: 2 weeks, read-out: Mean IC50 (±S.E.) H-Ras-GG. The method, then:
(§1) Presumably, the non-polar alcohols pass through the cell membrane and are then diphosphorylated by an as yet uncharacterized kinase to FPP or GGPP.
(§2) The 3-substituted analogs were evaluated as inhibitors of the growth of ras-transformed cells by comparing their relative degree of activity against an isogenic panel of transformed cell lines, comprised of NIH 3T3 fibroblasts transfected with either H-Ras(61 L) [H-Ras-F], H-Ras(61 L)CVLL [H-Ras-GG], or a transforming form of c-raf [Raf]. The H-Ras-F, H-Ras-GG, and raf transformed NIH3T3 cell lines have been previously described in Cox, et al., Molecular and Cellular Biology, Vol. 12, No. 6, pages 2606-2615 (1992). The cells were grown prior to plating in Dulbecco's modified Eagle medium supplemented with 10% calf serum and 1% antibiotic/antimycotic at 37° C. and 10% CO2. Experiments were carried out in 6-well dishes in a two layer agar system (0.6% bottom layer and 0.3% top layer). Cells were incorporated into the top layer along with varying concentrations of the compound prepared in ethanol. Compound addition occurred only at the time the cells were seeded. Subsequent incubation was at 37° C. with 10% CO2 for 2 weeks. Colonies were stained with 0.5 ml/well of 1 mg/ml p-iodonitrotetrazolium violet (Sigma) for 24 hours prior to quantitation by image analysis.

Test [3] deals with NIH 3T3 fibroblasts transfected with H-Ras(61 L) [H-Ras-F]. The experiment in a line: Soft agar anchorage-independent growth, H-Ras-F cells. The format is cell-based. To be noted: for IC50: soft agar, 2 weeks, read-out: Mean IC50 (±S.E.) H-Ras-F. The method, then: as §1, §2
Another test has as its system H-Ras-F cells. Description: Cell morphology of lovastatin-treated H-Ras-F cells. It counts as cell-based. To be noted: 25 μM lovastatin 24 h, then analog 24 h. The method, then:
It has been well established that levels of lovastatin that completely block the mevalonate pathway result in cell cycle blockade, significant cytotoxicity, and a sharp change in cell appearance to a rounded morphology. The effects of lovastatin on the cell morphology of H-Ras-F and H-Ras-GG cells treated with FPP, GGPP, 3-vFPP, 3-vGGPP, 3-alFPP, and 3-alGGPP were photographed and the results are shown on FIG. 9 (H-Ras-F) and 8 (H-Ras-GG), respectively. The H-Ras-F and H-Ras-GG cells were grown in six-well plates to 70-80% confluence. After treating the cells with lovastatin (25 μM) for 24 hour, the indicated FPP or GGPP analogs (re-suspended in media) were added directly to the cell media. Photographs were taken after an additional 24 hour incubation period.

The target of test [4] is recombinant mFTase (affinity purified rat FPTase) (Rattus norvegicus, UniProt Q02293+Q04631). The experiment in a line: FTase scintillation proximity assay. It counts as biochemical. The note with it: for IC50: recombinant mFTase, tritiated FPP 0.12 μM, peptide 0.1 μM; for FTase/GGTase: selectivity mFTase against mGGTase I; for Ki: varying concentrations of tritiated FPP, read-out: K1 FTase. The method, then: (§3) The method is described in detail in Yokama, et al., J. Biol. Chem., Vol. 272, No. 7, pages 3944-3952 (February 1997). The FTase, tritiated FPP, and the peptide were incubated at 37° C. for 30 minutes in a buffer. After incubation, a stop reagent and streptavidin beads (Amersham) were added. The radioactive product was counted on a Wallac Microbeta 1450 scintillation counter. The kinetic fits were derived from a nonlinear least squares computer fit of the data. The Ki values were determined using the same assay system with varying concentrations of tritiated FPP.

In another test the test system is H-Ras in H-Ras-F cells. Description: Subcellular fractionation / Western blot of Ras in lovastatin-treated H-Ras-F cells. The format is cell-based. The note with it: for Subcellular location of H-Ras (membrane vs cytosol): H-Ras-F cells, 25 μM lovastatin 24 h, then analog 24 h. The method, then:
Following an additional 24 h incubation period, the cells were harvested, lysed and the membranes (M) separated from the cytosol (C). After solubilization of the membrane fraction, Ras protein was immunoprecipitated from both the membrane and cytosolic fractions by the addition of the Y13-259 antibody (OP04 from Oncogene Science). The presence of Ras protein in each fraction was analyzed by Western transfer techniques. Incubation with the primary antibody (pan-ras Ab-2 from Oncogene Science) and an anti-mouse HRP conjugate secondary antibody (Amersham) was employed for detection of the ras protein. Blots were developed using Enhanced Chemiluminescence techniques (Amersham). The technique is described in detail by Scholten, et al., Bioorg. Med. Chem., Vol. 4, pages 1537-1543 (1992).
The results are shown in FIGS. 6 and 7 which are Western blots of the H-Ras-F and H-Ras-GG experiments, respectively. H-Ras-F cells were treated with lovastatin in order to block the mevalonate pathway, prevent the formation of FPP and GGPP, and thus, inhibit protein prenylation.

The target of test [5] is T1, recombinant yeast FTase (yFTase) (Saccharomyces cerevisiae, UniProt P22007+P29703).
T1 sequence (P22007 1-431): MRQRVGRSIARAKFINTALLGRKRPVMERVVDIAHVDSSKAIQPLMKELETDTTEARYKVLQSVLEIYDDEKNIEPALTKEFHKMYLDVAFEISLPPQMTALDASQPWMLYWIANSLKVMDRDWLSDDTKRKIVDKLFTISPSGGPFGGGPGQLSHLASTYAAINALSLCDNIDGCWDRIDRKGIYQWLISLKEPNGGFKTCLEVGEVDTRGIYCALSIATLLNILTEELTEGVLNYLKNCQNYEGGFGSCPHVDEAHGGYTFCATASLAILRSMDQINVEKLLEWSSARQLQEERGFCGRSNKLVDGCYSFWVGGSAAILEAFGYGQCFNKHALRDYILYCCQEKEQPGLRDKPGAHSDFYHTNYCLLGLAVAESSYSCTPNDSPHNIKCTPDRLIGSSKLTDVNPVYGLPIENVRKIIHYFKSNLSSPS
T1 sequence (P29703 1-316): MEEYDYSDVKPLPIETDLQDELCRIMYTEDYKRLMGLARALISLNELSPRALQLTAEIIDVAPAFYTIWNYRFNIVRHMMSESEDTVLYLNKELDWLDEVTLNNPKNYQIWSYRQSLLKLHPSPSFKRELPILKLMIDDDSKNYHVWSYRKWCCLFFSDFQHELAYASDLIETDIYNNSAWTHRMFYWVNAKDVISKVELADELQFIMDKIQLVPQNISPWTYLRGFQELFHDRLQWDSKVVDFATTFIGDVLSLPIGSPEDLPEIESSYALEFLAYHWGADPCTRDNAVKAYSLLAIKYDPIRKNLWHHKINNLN
To be noted: cited from earlier work.

The next test has as its target recombinant mGGTase I (Homo sapiens, UniProt P49354+P53609). The experiment in a line: GGTase I scintillation proximity assay. The format is biochemical. To be noted: tritiated GGPP. The method, then:
as §3
GGTase I values were determined in a similar manner using recombinant mGGTase I, tritiated GGPP, and the peptide Biotin-Aha-Thr-Lys-Cys-Val-Ile-Leu-OH.

“Also recorded” adds a separate entry of the source. Where only a bound is given, the exact number is not on record here.

Regarding “3-Allyl 7,11-dimethyldodeca-2(Z),6(E),10-trien-1-ol [3-ally Farnesol]”, the “Effect on HPAC cells at 100 nM” value in test [1] (100 nM) is listed as “cytostasis”. Besides, the “Viable HPAC cell count at 100 nM” value in test [1] (100 nM, seeded 2×10^5/ml, control well 2.2×10^6 cells) was ~2×10^5 /well. Besides, in test [1] (500 nM, listed as 3-allylfarnesol), the “Effect on HPAC cells at 500 nM” value is given as “potently cytotoxic; also recorded: complete cytotoxicity”.

Consider `CCC(=CCO)CCC=C(C)CCC=C(C)C` [3-ethyl Farnesol], for which the IC50 in test [2] and in test [3] was over 25000 nM throughout.

In the case of `CC(C)=CCCC(C)=CCCC(=CCO)c1ccccc1` [3-phenyl Farnesol], the IC50 in test [2] and in test [3] was over 25000 nM throughout.

For `CC(C)=CCC/C(C)=C/CC/C(=C/CO)C(C)(C)C` [3-tert-butylfarnesol, 3-tert-Butyl-7,11-dimethyldodeca-2(Z),6(E),10-trien-1-ol], in test [3] (transformed NIH3T3 cell lines), the “Cellular activity (transformed cell growth, soft agar), in words” value is “inactive in cells”.

With `C=CC/C(=C\COP(=O)(O)OP(=O)(O)O)CC/C=C(\C)CCC=C(C)C` [Compound 3-alFPP, 3-Allyl-7,11-dimethyldodeca-2(Z),6(E),10-triene 1-diphosphate], in the test on H-Ras-F cells, the “Reversal of rounded morphology of lovastatin-treated H-Ras-F cells” value is listed as “not able to reverse the morphology”. Also, in test [4], the “Mode of inhibition of mFTase versus FPP” value was “competitive inhibitors”, the IC50 was found to be 189 nM, the FTase/GGTase is given as over 530 and the Ki turned out to be 31 nM. For the same compound, in the test on H-Ras in H-Ras-F cells, the “Subcellular location of H-Ras (membrane vs cytosol)” value is “virtually all of the H-Ras being found in the cytosol”.

`CC/C(=C\COP(=O)(O)OP(=O)(O)O)CC/C=C(\C)CCC=C(C)C` [Compound 3-etFPP]: in test [4], the IC50 was determined as 215 nM and the FTase/GGTase is over 460.

Consider `CC(C)=CCC/C(C)=C/CC/C(=C/COP(=O)(O)OP(=O)(O)O)c1ccccc1` [Compound 3-phFPP], for which, in test [4], the IC50 amounted to 299 nM and the FTase/GGTase is given as over 340.

`CC(C)=CCC/C(C)=C/CC/C(=C/COP(=O)(O)OP(=O)(O)O)C(C)(C)C` [Compound 3-tbFPP, 3-tert-butyl-2(Z),6(E),10-triene diphosphate]: in test [5], the “Inhibition of yFTase” value is “potent competitive inhibitor” and the “Substrate activity for yFTase” value is given as “exceptionally poor substrate”. Besides, in test [4], the “Mode of inhibition of mFTase versus FPP” value is listed as “competitive inhibitors”, the concentration for half-maximal inhibition (IC50) was determined as 31 nM, the FTase/GGTase result is recorded as “˜1600” and the Ki turned out to be 8 nM. Moreover, the IC50 at recombinant mGGTase I was about 50000 nM.

On to `C=C/C(=C\COP(=O)(O)OP(=O)(O)O)CC/C=C(\C)CCC=C(C)C` [Compound 3-vFPP, 3-Vinyl-7,11-dimethyldodeca-2(Z),6(E),10-triene 1-Diphosphate], for which, in test [5], the “Substrate activity for yFTase” value is recorded as “poor alternative substrate”. For the same compound, the “Reversal of rounded morphology of lovastatin-treated H-Ras-F cells” value with H-Ras-F cells is reported as “modest ability to do so”. In addition, in test [4], the “Mode of inhibition of mFTase versus FPP” value is listed as “competitive inhibitors”, the IC50 was found to be 173 nM, the FTase/GGTase entry is “˜600” and the Ki was 96 nM. For the same compound, the half-inhibitory concentration (IC50) on recombinant mGGTase I was about 100000 nM. Also, in the test on H-Ras in H-Ras-F cells, the “Blocking of prenylation of Ras proteins in H-Ras-F cells” value is listed as “neither 3-vinylfarnesol nor 3-vFPP blocked the prenylation of Ras proteins” and the “Subcellular location of H-Ras (membrane vs cytosol)” value is “virtually complete localization of the H-Ras protein in the membrane fraction (M)”.

For the compound `CC(C)=CCC/C(C)=C/CC/C(C)=C/CC/C(C)=C/COP(=O)(O)OP(=O)(O)O` [GGPP, geranylgeranyl diphosphate, reference compound], the “Reversal of rounded morphology of lovastatin-treated H-Ras-F cells” value in the test with H-Ras-F cells is “can be reversed”.

With `CC(C)=CCC/C(C)=C/CC/C(C)=C/CC/C(C)=C/CO` [geranylgeraniol, reference compound], in the test with H-Ras-F cells, the “Reversal of rounded morphology of lovastatin-treated H-Ras-F cells” value is “can be reversed”.

With `CC[C@H](C)C(=O)O[C@H]1C[C@@H](C)C=C2C=C[C@H](C)[C@H](CC[C@@H]3C[C@@H](O)CC(=O)O3)[C@H]21` [lovastatin, reference compound], in the test with H-Ras in H-Ras-F cells, the “Subcellular location of H-Ras (membrane vs cytosol)” value is on record as “shift of the majority of H-Ras from the membrane fraction (M) to the cytosol (C)”.

(Values after patent US6586461B1, “Prenyl transferase inhibitors” (Wayne State University, priority 1998, dated 2003).)
